Data published in patent US20110052534A1, “Imidazopyridazine Compounds for Treating Viral Infections” (priority 2009, published 2011).

Tests used:
Type in all cases: cell-based
[1] = tested on: HCV genotype 1b replicon (ET replicon); experiment: microbe, parasite or virus in culture; conditions: Hepatitis C virus; Table 3; luciferase activity after 48 hours; read-out: HCV Genotype 1B Replicon EC50
Source text: (§1) Two cell lines were used for screening of compounds for inhibiting HCV RNA replication (genoytype 1a and 1b). Genotype la replicon cells, are a Huh-7 derived cell line bearing the genotype 1a H77NS3-5B bicistronic subgenomic replicon. See, Blight, et al., J. Virol. (2003) 77(5): 3181-3190.
(§2) The genotype 1a replicon contains several adaptive mutations (NS4B Q31H, NS5A K68R, NS5A S232I), the luciferase gene and encodes for neomycin resistance. The genotype 1b replicon, also referred to as the ET replicon, is stably transfected with RNA transcripts harboring a I389luc-ubi-neo/NS3-3′/ET replicon with firefly luciferase-ubiquitin-neomycin phosphotransferase fusion protein and EMCV-IRES driven NS3-5B polyprotein containing the cell culture adaptive mutations (E1202G; T12801; K1846T) See, Kreiger, et al., Journal of Virology 75:4614-4624 (2001). Both cell lines were grown in DMEM, supplemented with 10% fetal calf serum, 2 mM Glutamine, Penicillin (100 IU/mL)/Streptomycin (100 μg/mL), 1×nonessential amino acids, and 250 μg/mL G418 (“Geneticin”). They were all available through Life Technologies (Bethesda, Md.). The cells were plated at 0.5×10^4 cells/well in 384 well plates containing compounds. The final concentration of compounds ranged between 0.1 nM to 50 μM and the final DMSO concentration of 0.5%.
(§3) Luciferase activity was measured 48 hours later by adding a Steady glo (Promega, Madison, Wis.). Percent inhibition of replication data was plotted relative to no compound control. Under the same condition, cytotoxicity of the compounds was determined using cell titer glo (Promega, Madison, Wis.). EC50 values were determined from a 10 point dose response curve using 2-4 fold serial dilutions for each compound, which spans a concentration range of at least a 1000 fold. Replicon EC50 values, the concentration of compound required to inhibit 50% of the assay response, were calculated by curve fitting data to the Hill equation, using a non-linear least-squares curve-fitting program. The software tested the data for quality and rejected compounds with high and low activity before fitting the equation below.
(§4) Analysis was performed using an XC50 module and BioAssay Enterprise (Cambridge Soft).

[2] = tested on: HCV genotype 1a H77 NS3-5B bicistronic subgenomic replicon; experiment: microbe, parasite or virus in culture; conditions: Hepatitis C virus; Table 3; luciferase activity after 48 hours; read-out: HCV Genotype 1A Replicon EC50
Source text: as §1, §2, §3, §4

[3] = in vitro; conditions: human; Table 3; cytotoxicity, cell titer glo, same condition as replicon assay; read-out: HCV Genotype 1B CC50
Source text: as §2, §3

COC(=O)C(c1cc(-c2ccc(C3CC3)cc2C(F)(F)F)no1)n1cc2nc(-c3cccc(F)c3F)nc-2cn1 (centres unmarked) [Compound 178, Methyl {3-[4-cyclopropyl-2-(trifluoromethyl)phenyl]-5-isoxazolyl}[2-(2,3-difluorophenyl)-5H-imidazo[4,5-d]pyridazin-5-yl]acetate]
EC50 [1]: 0.01 µM | EC50 [2]: 0.05 µM | CC50 [3]: 25 µM

O=C(OCCOCCO)C(c1cc(-c2ccc(C3CC3)cc2C(F)(F)F)no1)n1cc2nc(-c3cccc(F)c3F)nc-2cn1 (centres unmarked) [Compound 179, 2-[(2-hydroxyethyl)oxy]ethyl {3-[4-cyclopropyl-2-(trifluoromethyl)phenyl]-5-isoxazolyl}[2-(2,3-difluorophenyl)-5H-imidazo[4,5-d]pyridazin-5-yl]acetate]
EC50 [1]: 0.013 µM | EC50 [2]: 0.079 µM | CC50 [3]: 50 µM

CC(CO)(CO)COC(=O)C(c1cc(-c2ccc(C3CC3)cc2C(F)(F)F)no1)n1cc2nc(-c3cccc(F)c3F)nc-2cn1 (centres unmarked) [Compound 180, 3-hydroxy-2-(hydroxymethyl)-2-methylpropyl {3-[4-cyclopropyl-2-(trifluoromethyl)phenyl]-5-isoxazolyl}[2-(2,3-difluorophenyl)-5H-imidazo[4,5-d]pyridazin-5-yl]acetate]
EC50 [1]: 0.008 µM | EC50 [2]: 0.079 µM

O=C(OCCCO)C(c1cc(-c2ccc(C3CC3)cc2C(F)(F)F)no1)n1cc2nc(-c3cccc(F)c3F)nc-2cn1 (centres unmarked) [Compound 182, 3-Hydroxypropyl {3-[4-cyclopropyl-2-(trifluoromethyl)phenyl]-5-isoxazolyl}[2-(2,3-difluorophenyl)-5H-imidazo[4,5-d]pyridazin-5-yl]acetate]
EC50 [1]: 0.013 µM | EC50 [2]: 0.063 µM | CC50 [3]: > 50 µM

CCCOC(=O)C(c1cc(-c2ccc(C3CC3)cc2C(F)(F)F)no1)n1cc2nc(-c3cccc(F)c3F)nc-2cn1 (centres unmarked) [Compound 184, Propyl {3-[4-cyclopropyl-2-(trifluoromethyl)phenyl]-5-isoxazolyl}[2-(2,3-difluorophenyl)-5H-imidazo[4,5-d]pyridazin-5-yl]acetate]
EC50 [1]: 0.013 µM | EC50 [2]: 0.079 µM | CC50 [3]: 25 µM

O=C(OCCCOP(=O)(O)O)C(c1cc(-c2ccc(C3CC3)cc2C(F)(F)F)no1)n1cc2nc(-c3cccc(F)c3F)nc-2cn1 (centres unmarked) [Compound 186, 3-(phosphonooxy)propyl {3-[4-cyclopropyl-2-(trifluoromethyl)phenyl]-5-isoxazolyl}[2-(2,3-difluorophenyl)-5H-imidazo[4,5-d]pyridazin-5-yl]acetate]
EC50 [1]: 0.01 µM | EC50 [2]: 0.079 µM | CC50 [3]: 50 µM
